Where a SMILES comes first, the peptide text is derived from it.
How the values were obtained:
[1] = molecular target: T1, mGLP-1R (Mus musculus, UniProt O35659); assay: GLP-1R agonist activity, cAMP in transfected HEK293 cells; format: cell-based; conditions: HEK293 cells transfected with GLP-1R, cAMP, 20 min incubation; read-out: mGLP-1R EC50
T1 construct: expressed in transfected cells; host or cells: HEK293
T1 sequence (O35659 22-463): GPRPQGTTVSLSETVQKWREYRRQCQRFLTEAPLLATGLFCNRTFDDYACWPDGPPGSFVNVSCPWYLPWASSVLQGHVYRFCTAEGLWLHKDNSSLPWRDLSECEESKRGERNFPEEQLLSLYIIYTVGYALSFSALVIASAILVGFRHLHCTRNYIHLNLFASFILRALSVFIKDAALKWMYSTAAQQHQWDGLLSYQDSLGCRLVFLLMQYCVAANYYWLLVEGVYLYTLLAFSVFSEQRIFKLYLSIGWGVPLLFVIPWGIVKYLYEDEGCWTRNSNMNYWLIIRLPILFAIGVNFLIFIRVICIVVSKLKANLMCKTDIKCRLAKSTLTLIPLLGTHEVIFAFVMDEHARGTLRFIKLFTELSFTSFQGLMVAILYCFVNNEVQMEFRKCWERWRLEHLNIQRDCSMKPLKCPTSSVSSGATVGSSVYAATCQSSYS
Description: HEK293 cells were co-transfected with cDNA encoding GLP-1R or GIPR. In a test for determining the compound, the cells were inoculated in a 96-well plate 2 h in advance, the polypeptide compound was dissolved with DMSO, and diluted to different multiples with a culture medium containing 0.1% bovine serum albumin and added to the co-transfected cells. After the cells were incubated for 20 min, fluorescence values were determined through microplate reader of an ELISA kit of the Cisbo Company, a standard curve was established to convert the fluorescence values into corresponding cAMP values, and the EC50 value of the compound was calculated through nonlinear regression of Graphpad Prism 5.0 software.

[2] = molecular target: T2, mGIPR (Mus musculus, UniProt Q0P543); assay: GIPR agonist activity, cAMP in transfected HEK293 cells; format: cell-based; conditions: HEK293 cells transfected with GIPR, cAMP, 20 min incubation; read-out: mGIPR EC50
T2 construct: expressed in transfected cells; host or cells: HEK293
T2 sequence (Q0P543 19-460): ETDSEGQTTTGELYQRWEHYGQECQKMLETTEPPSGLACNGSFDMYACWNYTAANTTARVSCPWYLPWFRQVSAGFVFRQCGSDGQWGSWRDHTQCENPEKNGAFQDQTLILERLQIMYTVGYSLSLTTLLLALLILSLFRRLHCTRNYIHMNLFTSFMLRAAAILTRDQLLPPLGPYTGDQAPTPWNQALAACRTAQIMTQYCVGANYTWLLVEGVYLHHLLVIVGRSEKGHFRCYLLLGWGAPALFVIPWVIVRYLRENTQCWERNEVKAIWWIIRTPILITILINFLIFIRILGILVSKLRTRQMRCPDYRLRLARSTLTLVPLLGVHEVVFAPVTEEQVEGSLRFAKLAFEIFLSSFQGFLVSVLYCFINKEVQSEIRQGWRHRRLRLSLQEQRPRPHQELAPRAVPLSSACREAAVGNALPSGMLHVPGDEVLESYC
Description: HEK293 cells were co-transfected with cDNA encoding GLP-1R or GIPR. In a test for determining the compound, the cells were inoculated in a 96-well plate 2 h in advance, the polypeptide compound was dissolved with DMSO, and diluted to different multiples with a culture medium containing 0.1% bovine serum albumin and added to the co-transfected cells.

SMILES: CC[C@H](C)[C@H](NC(=O)[C@H](CC(C)C)NC(=O)[C@H](Cc1c[nH]c2ccccc12)NC(=O)[C@H](CCC(N)=O)NC(=O)[C@@H](NC(=O)[C@H](Cc1ccccc1)NC(=O)[C@H](C)NC(=O)[C@H](CCCCNC(=O)COCCOCCNC(=O)COCCOCCNC(=O)CC[C@H](NC(=O)CCCCCCCCCCCCCCCCC(=O)O)C(=O)O)NC(=O)[C@H](CCC(N)=O)NC(=O)[C@H](C)NC(=O)[C@@H](NC(=O)[C@H](CCCCN)NC(=O)[C@H](CC(=O)O)NC(=O)[C@H](CC(C)C)NC(=O)C1(NC(=O)[C@@H](NC(=O)[C@H](CO)NC(=O)[C@H](Cc2ccc(O)cc2)NC(=O)[C@H](CC(=O)O)NC(=O)[C@H](CO)NC(=O)[C@@H](NC(=O)[C@H](Cc2ccccc2)NC(=O)[C@@H](NC(=O)CNC(=O)[C@H](CCC(=O)O)NC(=O)C(C)(C)NC(=O)[C@@H](N)Cc2ccc(O)cc2)[C@@H](C)O)[C@@H](C)O)[C@@H](C)CC)CCCC1)[C@@H](C)CC)C(C)C)C(=O)N[C@@H](C)C(=O)NCC(=O)NCC(=O)N1CCC[C@H]1C(=O)N[C@@H](CO)C(=O)N[C@@H](CO)C(=O)NCC(=O)N[C@@H](C)C(=O)N1CCC[C@H]1C(=O)N1CCC[C@H]1C(=O)N1CCC[C@H]1C(=O)N[C@@H](CO)C(N)=O [ID NO: 10]
- EC50 [1]: 0.00889 nM
- EC50 [2]: 0.00811 nM

SMILES: CCCCCCCCCCCCCCCC(=O)N[C@@H](CCC(=O)NCCCC[C@H](NC(=O)[C@H](CCC(N)=O)NC(=O)[C@H](C)NC(=O)[C@@H](NC(=O)[C@H](CCCCN)NC(=O)[C@H](CC(=O)O)NC(=O)[C@H](CC(C)C)NC(=O)C(C)(C)NC(=O)[C@@H](NC(=O)[C@H](CO)NC(=O)[C@H](Cc1ccc(O)cc1)NC(=O)[C@H](CC(=O)O)NC(=O)[C@H](CO)NC(=O)[C@@H](NC(=O)[C@H](Cc1ccccc1)NC(=O)[C@@H](NC(=O)CNC(=O)[C@H](CCC(=O)O)NC(=O)C(C)(C)NC(=O)[C@@H](N)Cc1ccc(O)cc1)[C@@H](C)O)[C@@H](C)O)[C@@H](C)CC)[C@@H](C)CC)C(=O)N[C@@H](C)C(=O)N[C@@H](Cc1ccccc1)C(=O)N[C@H](C(=O)N[C@@H](CCC(N)=O)C(=O)N[C@@H](Cc1c[nH]c2ccccc12)C(=O)N[C@@H](CC(C)C)C(=O)N[C@H](C(=O)N[C@@H](C)C(=O)NCC(=O)NCC(=O)N1CCC[C@H]1C(=O)N[C@@H](CO)C(=O)N[C@@H](CO)C(=O)NCC(=O)N[C@@H](C)C(=O)N1CCC[C@H]1C(=O)N1CCC[C@H]1C(=O)N1CCC[C@H]1C(=O)N[C@@H](CO)C(N)=O)[C@@H](C)CC)C(C)C)C(=O)O [ID NO: 11]
- EC50 [1]: 0.0243 nM
- EC50 [2]: 0.00632 nM

SMILES: CCCCCCCCCCCCCCCC(=O)N[C@@H](CCC(=O)NCCCC[C@H](NC(=O)[C@H](CCC(N)=O)NC(=O)[C@H](C)NC(=O)[C@@H](NC(=O)[C@H](CCCCN)NC(=O)[C@H](CC(=O)O)NC(=O)[C@H](CC(C)C)NC(=O)[C@@H](NC(=O)[C@@H](NC(=O)[C@H](CO)NC(=O)[C@H](Cc1ccc(O)cc1)NC(=O)[C@H](CC(=O)O)NC(=O)[C@H](CO)NC(=O)[C@@H](NC(=O)[C@H](Cc1ccccc1)NC(=O)[C@@H](NC(=O)CNC(=O)[C@H](CCC(=O)O)NC(=O)[C@@H](NC(=O)[C@@H](N)Cc1ccc(O)cc1)C(C)C)[C@@H](C)O)[C@@H](C)O)[C@@H](C)CC)C(C)C)[C@@H](C)CC)C(=O)N[C@@H](C)C(=O)N[C@@H](Cc1ccccc1)C(=O)N[C@H](C(=O)N[C@@H](CCC(N)=O)C(=O)N[C@@H](Cc1c[nH]c2ccccc12)C(=O)N[C@@H](CC(C)C)C(=O)N[C@H](C(=O)N[C@@H](C)C(=O)NCC(=O)NCC(=O)N1CCC[C@H]1C(=O)N[C@@H](CO)C(=O)N[C@@H](CO)C(=O)NCC(=O)N[C@@H](C)C(=O)N1CCC[C@H]1C(=O)N1CCC[C@H]1C(=O)N1CCC[C@H]1C(=O)N[C@@H](CO)C(N)=O)[C@@H](C)CC)C(C)C)C(=O)O [ID NO: 12] (HELM PEPTIDE1{Y.V.E.G.T.F.T.S.D.Y.S.I.V.L.D.K.I.A.Q.K.A.F.V.Q.W.L.I.A.G.G.P.S.S.G.A.P.P.P.S.[am]}|PEPTIDE2{[CCCCCCCCCCCCCCCC(=O)[*:2]].[gGlu]}$PEPTIDE1,PEPTIDE2,20:R3-2:R2$$$V2.0)
- EC50 [1]: 0.0561 nM
- EC50 [2]: 0.00879 nM

SMILES: CCCCCCCCCCCCCCCC(=O)N[C@@H](CCC(=O)NCCCC[C@H](NC(=O)[C@H](CCC(N)=O)NC(=O)[C@H](C)NC(=O)[C@@H](NC(=O)[C@H](CCCCN)NC(=O)[C@H](CC(=O)O)NC(=O)[C@H](CC(C)C)NC(=O)C1(NC(=O)[C@@H](NC(=O)[C@H](CO)NC(=O)[C@H](Cc2ccc(O)cc2)NC(=O)[C@H](CC(=O)O)NC(=O)[C@H](CO)NC(=O)[C@@H](NC(=O)[C@H](Cc2ccccc2)NC(=O)[C@@H](NC(=O)CNC(=O)[C@H](CCC(=O)O)NC(=O)C2(NC(=O)[C@@H](N)Cc3ccc(O)cc3)CCCC2)[C@@H](C)O)[C@@H](C)O)[C@@H](C)CC)CCCC1)[C@@H](C)CC)C(=O)N[C@@H](C)C(=O)N[C@@H](Cc1ccccc1)C(=O)N[C@H](C(=O)N[C@@H](CCC(N)=O)C(=O)N[C@@H](Cc1c[nH]c2ccccc12)C(=O)N[C@@H](CC(C)C)C(=O)N[C@H](C(=O)N[C@@H](C)C(=O)NCC(=O)NCC(=O)N1CCC[C@H]1C(=O)N[C@@H](CO)C(=O)N[C@@H](CO)C(=O)NCC(=O)N[C@@H](C)C(=O)N1CCC[C@H]1C(=O)N1CCC[C@H]1C(=O)N1CCC[C@H]1C(=O)N[C@@H](CO)C(N)=O)[C@@H](C)CC)C(C)C)C(=O)O [ID NO: 14]
- EC50 [1]: 0.0311 nM
- EC50 [2]: 0.0517 nM

SMILES: CCCCCCCCCCCCCCCC(=O)N[C@@H](CCC(=O)NCCCC[C@H](NC(=O)[C@H](CCC(N)=O)NC(=O)[C@H](C)NC(=O)[C@@H](NC(=O)[C@H](CCCCN)NC(=O)[C@H](CC(=O)O)NC(=O)[C@H](CC(C)C)NC(=O)[C@H](C)NC(=O)[C@@H](NC(=O)[C@H](CO)NC(=O)[C@H](Cc1ccc(O)cc1)NC(=O)[C@H](CC(=O)O)NC(=O)[C@H](CO)NC(=O)[C@@H](NC(=O)[C@H](Cc1ccccc1)NC(=O)[C@@H](NC(=O)CNC(=O)[C@H](CCC(=O)O)NC(=O)[C@H](C)NC(=O)[C@@H](N)Cc1ccc(O)cc1)[C@@H](C)O)[C@@H](C)O)[C@@H](C)CC)[C@@H](C)CC)C(=O)N[C@@H](C)C(=O)N[C@@H](Cc1ccccc1)C(=O)N[C@H](C(=O)N[C@@H](CCC(N)=O)C(=O)N[C@@H](Cc1c[nH]c2ccccc12)C(=O)N[C@@H](CC(C)C)C(=O)N[C@H](C(=O)N[C@@H](C)C(=O)NCC(=O)NCC(=O)N1CCC[C@H]1C(=O)N[C@@H](CO)C(=O)N[C@@H](CO)C(=O)NCC(=O)N[C@@H](C)C(=O)N1CCC[C@H]1C(=O)N1CCC[C@H]1C(=O)N1CCC[C@H]1C(=O)N[C@@H](CO)C(N)=O)[C@@H](C)CC)C(C)C)C(=O)O [ID NO: 15]
- EC50 [1]: 0.0429 nM
- EC50 [2]: 0.0532 nM

SMILES: CCCCCCCCCCCCCCCC(=O)N[C@@H](CCC(=O)NCCCC[C@H](NC(=O)[C@H](CCC(N)=O)NC(=O)[C@H](C)NC(=O)[C@@H](NC(=O)[C@H](CCCCN)NC(=O)[C@H](CC(=O)O)NC(=O)[C@H](CC(C)C)NC(=O)C(C)(C)NC(=O)[C@@H](NC(=O)[C@H](CO)NC(=O)[C@H](Cc1ccc(O)cc1)NC(=O)[C@H](CC(=O)O)NC(=O)[C@H](CO)NC(=O)[C@@H](NC(=O)[C@H](Cc1ccccc1)NC(=O)[C@@H](NC(=O)CNC(=O)[C@H](CCC(=O)O)NC(=O)[C@H](C)NC(=O)[C@@H](N)Cc1ccc(O)cc1)[C@@H](C)O)[C@@H](C)O)[C@@H](C)CC)[C@@H](C)CC)C(=O)N[C@@H](C)C(=O)N[C@@H](Cc1ccccc1)C(=O)N[C@H](C(=O)N[C@@H](CCC(N)=O)C(=O)N[C@@H](Cc1c[nH]c2ccccc12)C(=O)N[C@@H](CC(C)C)C(=O)N[C@H](C(=O)N[C@@H](C)C(=O)NCC(=O)NCC(=O)N1CCC[C@H]1C(=O)N[C@@H](CO)C(=O)N[C@@H](CO)C(=O)NCC(=O)N[C@@H](C)C(=O)N1CCC[C@H]1C(=O)N1CCC[C@H]1C(=O)N1CCC[C@H]1C(=O)N[C@@H](CO)C(N)=O)[C@@H](C)CC)C(C)C)C(=O)O [ID NO: 16] (HELM PEPTIDE1{Y.A.E.G.T.F.T.S.D.Y.S.I.[Aib].L.D.K.I.A.Q.K.A.F.V.Q.W.L.I.A.G.G.P.S.S.G.A.P.P.P.S.[am]}|PEPTIDE2{[CCCCCCCCCCCCCCCC(=O)[*:2]].[gGlu]}$PEPTIDE1,PEPTIDE2,20:R3-2:R2$$$V2.0)
- EC50 [1]: 0.0425 nM
- EC50 [2]: 0.00965 nM
